Marks after values point to notes of the source that are not given here. Side chains are listed from the residue outwards. Ends that are not written are not given here.
Columns and labels:
euglobulin clot = assay: Euglobulin clot lysis; assay type: biochemical, Pig; conditions: after 4 h, n = 3
Experimental: Pig blood was taken and mixed with 3.8% sodium citrate in a volume ratio of 9:1, immediately centrifuged at 3000 r/min for 10 min, and platelet-poor plasma was separated. 2 mL platelet-poor pig plasma and 36 mL ultrapure water were added into a 50 mL centrifuge tube. In each tube, 0.4 mL acetic acid (1%) was added and thoroughly mixed, and the tube was placed in a 4° C. refrigerator for 10 min and then centrifuged at 3000 r/min for 10 min. The centrifuge tubes were inverted, and then the inner wall of the tubes was dried using a filter paper after the liquid was drained. The euglobuin pellets resulting from centrifugation was freeze-dried for about 40 min and scratched out. About 35 mg euglobuin was taken and dissolved in 7 ml borax buffer (pH 9.28). The euglobuin were mostly dissolved after 1 h, into which 0.7 mL CaCl2 solution (25 mM) was added, and immediately plated on a 10×10 cm glass plate with a thickness of about 1 mm. After clot formation, 10 μL normal saline, or 10 μL of a solution of one of compounds Ia to Il in normal saline (1 mM) or 10 μL of a urokinase solution in normal saline (0.8 mg/mL) was pipetted and spotted onto the clot plate, with an interval between every two drops more than 1.5 cm, and each sample was spotted 3 times.

[1] = tested on: thrombus from rat arterial blood; assay: In vitro thrombolysis; design: species or system SD rats; conditions: 2 h at 37° C., n = 6
Experimental: SD rats (male, 350 to 400 g) were anaesthetized by intraperitoneal injection of a urethane solution at a dosage of 1200 mg/kg. The anaesthetized rats were fixed in a supine position, and the right common carotid artery was dissected, clamped at the proximal end with an arterial clip, and penetrated with a suture at the proximal and distal ends, respectively. The suture at the distal end is clipped tightly by a hemostatic clamp at the fur. Cannulation was performed at the distal end, the artery clamp was removed, and the total arterial blood was discharged into a 50 ml container previously treated with silicone oil. […] rat arterial blood was injected into a vertically fixed glass tube (20 mm in length, with an inner diameter of 4 mm and an outer diameter of 5 mm, sealed with a rubber stopper at the bottom), into which was immediately inserted a thrombus immobilization screw made of stainless steel. […] 40 min after the blood was coagulated, the rubber stopper at the bottom of the glass tube was removed, the stem of the thrombus immobilization screw was nipped by forceps, and the thrombus-wrapped thrombus immobilization screw was carefully taken out from the glass tube. The screw was then suspended and dipped in triple-distilled water to remove excessive blood, and accurately weighed after 1 h. The thrombus was suspended in 8 mL of normal saline, or a solution of compounds Ia-Il in normal saline (at a concentration of 100 nM), or a solution of ARPAK (SEQ. ID NO. 4), GRPAK (SEQ. ID NO. 5), RPAK (SEQ. ID NO. 3) or PAK in normal saline (at a concentration of 100 nM), or a solution of urokinase in normal saline (100 IU/mL), then shaked at 37° C. in a thermostatic shaker (63 r/min), and removed after 2 h and accurately weighed to determine the weight of the thrombus.

thrombus [2] = assay: In vivo thrombolysis, rat arteriovenous bypass thrombolysis model; design: species or system SD rats; conditions: after 1 h, n = 10
Experimental: SD rats (male, 220 to 230 g) were anaesthetized by intraperitoneal injection of a urethane solution at a dosage of 1200 mg/kg. The anaesthetized rats were fixed in a supine position, and the right common carotid artery was dissected, clamped at the proximal end with an arterial clip, and penetrated with a suture at the proximal and distal ends, respectively. The suture at the distal end is clipped tightly by a hemostatic clamp at the fur. Cannulation was performed at the distal end, the arterial clamp was removed, and about 1 ml arterial blood was discharged into a 1 ml eppendorf. 0.1 ml rat arterial blood was injected into a vertically fixed glass tube (15 mm in length, with an inner diameter of 2.5 mm and an outer diameter of 5.0 mm, sealed with a rubber stopper at the bottom), into which was immediately inserted a thrombus immobilization screw made of stainless steel. […] 15 min after the blood was coagulated, the rubber stopper at the bottom of the glass tube was removed, the stem of the thrombus immobilization screw was nipped by forceps, and the thrombus-wrapped thrombus immobilization screw was carefully taken out of the glass tube and then accurately weighed.
A bypass cannula was composed of 3 segments. The middle segment was a polyethylene tubing having a length of 60.0 mm and an inner diameter of 3.5 mm. The segments on both ends were similar polyethylene tubes having a length of 100.0 mm, an inner diameter of 1.0 mm and an outer diameter of 2.0 mm, one end of which was pulled to form a tip, with an outer diameter of 1.0 mm, that could be inserted into the rat carotid artery or vein, and the other end of which was sheathed by a polyethylene tube having a length of 7.0 mm and an outer diameter of 3.5 mm (thickened in order to be inserted into the polyethylene tubing of the middle segment). The inner wall of the 3-segment cannula was entirely silylated (with 1% silicone oil in ethyl ether). The thrombus-wrapped thrombus immobilization screw was placed into the polyethylene tubing of the middle segment, and both ends of the tubing sheathed the thickened ends of the two polyethylene tubes. The cannula was filled with a heparin solution in normal saline (50 IU/kg) through the tip end by using an injector and was ready for use. The trachea of the anaesthetized rat was then dissected and tracheal cannulation was performed. The left external carotid vein of the rat was dissected, and penetrated with a suture at the proximal and distal ends, respectively. An uneven open incision was careful made on the exposed left external carotid vein, and the tip of the bypass cannula prepared as described above was inserted into the proximal end of the open incision in the left external carotid vein, away from the stem of the thrombus immobilization screw in the middle segment of the bypass cannula (which accommodated the accurately weighed thrombus immobilization screw). A precise amount of heparin in saline (50 IU/kg) was injected through the tip at the other end by using an injector. At this moment, without removing the injector from the ethylene tube, the tubing between the injector and the polyethylene tube was clamped with forceps. The blood flow was stopped by clamping the proximal end of the right common carotid artery with an arterial clip, and an uneven open incision was cut carefully across the common carotid artery near the clip. The injector was pulled out of the tip of the polyethylene tube, and the tip of the polyethylene tube was then inserted into the proximal end of the artery open incision. Both ends of the bypass cannula were fixed to the artery or vein with #4 sutures. […]

thrombus [3] = assay: In vivo anti-thrombus experiment (arteriovenous cannula with thread); design: species or system SD rats; conditions: 0.1 μmol/kg by gavage; n = 11
Experimental: SD rats (male, 220 to 230 g) were randomly divided into groups with 11 rats in each group. The rats were fed at a resting state for 1 day and fasted overnight. […] After 30 min, the rats were anesthetized with a 20% urethane solution, and the right carotid artery and the left carotid vein were dissected. A cannula was filled with sodium heparin in normal saline, and one end thereof was inserted into the left vein, while the other end was injected with a certain amount of sodium heparin for anticoagulation with an injector and then inserted into the right artery. Blood flew from the right artery to the left vein through the polyethylene tubing, and the thread attached with thrombus was taken out after 15 min and the weight thereof was recorded. The wet thrombus weight was determined by subtracting the thread weight from the total weight.

rats with stroke = assay: Cerebral infarction volume after immediate treatment of stroke (TTC staining); assay type: in vivo, SD rats; conditions: n = 10
Experimental: After the rats were awake for 24 h and assessed for their degree of damage in neural function in Experimental example 6, they were anesthesized with urethane followed by immediate decapitation and removal of the brain. Brain tissues were kept in a −20° C. refrigerator for 2 h, and coronal sections of about 2 mm were successively sliced from the prefrontal end for a total of 6 sections, and then placed into a 2% TTC solution to incubate in darkness at 37° C. for 30 min. The color change in brain sections was observed: normal brain tissues were stained red by TTC, while ischemic brain tissues, i.e., brain tissues with infracts, appeared in a white color. Photographs were taken by using a digital camera and processed with SPSS statistics software, and the volume of infarction in brain tissues and the volume of normal brain tissues in the coronal sections were calculated.

| Substance | Diameter (Mean ± SD mm) of euglobulin clot lysis (euglobulin clot; 10 μL of 1 mM solution) [mm] | Weight reduction in thrombus (Mean ± SD mg) ([1]; 100 nM) [mg] | Weight reduction in thrombus (Mean ± SD mg) (thrombus [2]; 0.1 μmol/kg) [mg] | Wet weight of thrombus (Mean ± SD mg) (thrombus [3]) [mg] | Percentage of infarction volume (Mean ± SD %) (rats with stroke) [%] | Diameter (Mean ± SD mm) of euglobulin clot lysis (euglobulin clot; 10 μL of urokinase 0.8 mg/mL) [mm] | Weight reduction in thrombus (Mean ± SD mg) ([1]; urokinase 100 IU/mL) | Weight reduction in thrombus (Mean ± SD mg) (thrombus [2]; urokinase 20000 IU/kg) | Percentage of infarction volume (Mean ± SD %) (rats with stroke; urokinase 20000 IU/kg, immediate treatment) |
| --- | --- | --- | --- | --- | --- | --- | --- | --- | --- |
| 1,3-dioxo-2-{4′-oxyacetyl-[N^ω-(Pro-Ala-Lys)-Lys-Arg-Gly-Asp-Val]phenyl}-4,4,5,5-tetramethylimidazoline (K([Lys-Ala-Pro])RGDV; not fully specified (N-terminus); also: 4′-oxyacetylphenyl-1,3-dioxo-4,4,5,5-tetramethylimidazoline (nitronyl nitroxide) conjugate, attachment amine not clear) [Ik] | 4.5 | 25.00 ± 1.54 | 15.47 ± 2.61 | 22.25 ± 2.25 | 7.86 ± 1.02 |  |  |  |  |
| 1,3-dioxo-2-{4′-oxyacetyl-[N^ω-(Ala-Arg-Pro-Ala-Lys)-Lys-Arg-Gly-Asp-Ser]phenyl}-4,4,5,5-tetramethylimidazoline [Ia] | 4.0 | 28.50 ± 2.59 | 15.39 ± 3.19 | 24.32 ± 2.10 | 7.21 ± 0.82 |  |  |  |  |
| 1,3-dioxo-2-{4′-oxyacetyl-[N^ω-(Arg-Pro-Ala-Lys)-Lys-Arg-Gly-Asp-Ser]phenyl}-4,4,5,5-tetramethylimidazoline [Ig] | 5.2 | 27.83 ± 2.56 | 16.35 ± 2.42 | 17.89 ± 2.05 | 6.40 ± 0.28 |  |  |  |  |
| 1,3-dioxo-2-{4′-oxyacetyl-[N^ω-(Pro-Ala-Lys)-Lys-Arg-Gly-Asp-Ser]phenyl}-4,4,5,5-tetramethylimidazoline (K([Lys-Ala-Pro])RGDS; not fully specified (N-terminus); also: 4′-oxyacetylphenyl-1,3-dioxo-4,4,5,5-tetramethylimidazoline (nitronyl nitroxide) conjugate, attachment amine not clear) [Ij] | 4.0 | 26.16 ± 3.15 | 14.89 ± 1.84 | 19.45 ± 1.79 | 6.84 ± 0.82 |  |  |  |  |
| 1,3-dioxo-2-{4′-oxyacetyl-[N^ω-(Pro-Ala-Lys)-Lys-Arg-Gly-Asp-Phe]phenyl}-4,4,5,5-tetramethylimidazoline (K([Lys-Ala-Pro])RGDF; not fully specified (N-terminus); also: 4′-oxyacetylphenyl-1,3-dioxo-4,4,5,5-tetramethylimidazoline (nitronyl nitroxide) conjugate, attachment amine not clear) [Il] | 4.2 | 25.83 ± 2.31 | 16.21 ± 2.84 | 19.32 ± 2.56 | 6.56 ± 0.41 |  |  |  |  |
| urokinase |  |  |  |  |  | 10.7 | 58.33 ± 4.08^a mg | 18.02 ± 2.32^a mg | 11.00 ± 2.42 ^b % |
| 1,3-dioxo-2-{4′-oxyacetyl-[N^ω-(Ala-Arg-Pro-Ala-Lys)-Lys-Arg-Gly-Asp-Val]phenyl}-4,4,5,5-tetramethylimidazoline [Ib] | 5.2 | 28.17 ± 2.31 | 14.35 ± 2.95 | 20.14 ± 2.45 | 7.13 ± 0.83 |  |  |  |  |
| 1,3-dioxo-2-{4′-oxyacetyl-[N^ω-(Gly-Arg-Pro-Ala-Lys)-Lys-Arg-Gly-Asp-Ser]phenyl}-4,4,5,5-tetramethylimidazoline | 5.2 | 14.17 ± 3.55 | 14.17 ± 3.55 | 19.46 ± 1.84 | 8.21 ± 1.91 |  |  |  |  |
